Assay results taken from patent US12115221B2, “Pickering emulsion stabilized by cellulose nanocrystals from ginkgo seed shells and preparation method thereof” (Jiangnan University, priority 2019, dated 2024).

Experiment: Degradation rate of curcumin on storage
Format: physicochemical
Settings: storage at room temperature for 7 days
Protocol: Curcumin was dissolved in an oil phase. The CNCs with low aspect ratio obtained in the Example 6 were diluted to 0.3 wt %, and an emulsion was prepared according to the oil-water ratio of 1:9. Subsequently, high-speed shearing was carried out at 10000 rpm for 2 min using high-speed shearing equipment to obtain a coarse emulsion, and then the coarse emulsion was circulated 4 times at 30 MPa using a high-pressure homogenizer to obtain the final Pickering emulsion. Determination of degradation rate of curcumin: a certain volume of emulsion was taken; the emulsion was mixed with ethanol in a ratio of 1:1; the mixture was centrifuged at 11000 rpm for 5 min; the supernatant was collected; and the absorbance at 426 nm was measured. Formula of degradation rate: Degradation rate (100%)=m1/m2×100, wherein m1 is the mass of curcumin after the emulsion is placed, and m2 is the mass of curcumin before the emulsion is placed.

degradation rate of curcumin: 80%
SMILES: COc1cc(/C=C/C(=O)CC(=O)/C=C/c2ccc(O)c(OC)c2)ccc1O [curcumin in the aqueous solution, Curcumin]
